In patent US20250163052A1, “cGAS INHIBITORS AND USES THEREOF” (Cornell University, priority 2022, published 2025):

What was measured:
P301S mice [1] = assay: Immunofluorescent staining of hippocampal synapses (PSD-95, vGAT) in P301S mice; assay type: in vivo, mouse; settings: hippocampal CA1, 150 mg/kg diet for three months
Excerpt: (§1) P301S transgenic mice (https://www.jax.org/strain/008169) were crossed with cGas knockout mice (https://www.jax.org/strain/026554) to generate littermate P301S cGas+/+ mice, P301S cGas+/− and littermate P301S cGas−/− mice, as well as non-transgenic littermates. Mice of both sexes were used behavioral, histological and biochemical analyses. Mice underwent behavioral testing at 7 to 8 months of age and had not been used for any other experiments. At 9 to 10 months of age, the same mice were used for pathology and RNA-seq studies. For TDI-6570 in vivo treatment, P301S and non-transgenic littermate mice at 6-7 months were used for diet experiments and were assayed for behavior and histology at 9-10 months. Mice were housed under specific pathogen-free conditions under a 12 h light-dark cycle and all mouse protocols were approved by the Institutional Animal Care and Use Committee, University of California, San Francisco.
Hemibrains from transcardially perfused mice were placed in 4% paraformaldehyde for 48 h, followed by 30% sucrose PBS for 48 h at 4° C. Sections were cut coronally at 40 μm using a freezing microtome (Leica) and placed in cryoprotective medium at −20° C. until use. 8-10 free floating sections per mouse. […] Quantification was done using ImageJ software (NIH) using percentage area based on thresholding determined using negative and positive controls. […]

P301S mice [2] = assay: Novel object recognition test in P301S mice fed TDI-6570 diet; assay type: in vivo, mouse; settings: 150 mg/kg diet for three months
Excerpt: as §1
For experiments involving TDI-6570 treatment, male P301S and Non-transgenic littermates fed with TDI-6570 or control diet were used.
Mice were habituated to opaque open field arenas (40×40 cm) for two 10-minute trials spaced on the two days leading up to object recognition. […] An experimenter blind to the groups manually scored the time mice spent exploring each object. Preference was calculated based on the total time an individual mouse spent exploring both objects. […]

Cn1c2c(c3ccc(Cl)c(F)c31)CN(C(=O)CO)CC2 [TDI-6570, reference compound]
rescued: P301S-dependent excitatory synapse loss (PSD-95) (P301S mice [1]) | P301S-dependent inhibitory synapse loss (vGAT) (P301S mice [1]) | Defect in recognizing the novel object (novel object recognition test) (P301S mice [2])
